These results are taken from US7939639B2, “Functional role of adrenomedullin (AM) and the gene related product (PAMP) in human pathology and physiology” (The United States of America as represented by the …, priority 1995, dated 2011).

Values joined by “and” are separate entries in the source; they are usually repeats but may differ in a detail not shown here. Equal values may be shown once. “Also recorded” adds a separate entry of the source.

The subject of data set [1] is tumor cell lines (lung, colon, breast, brain, and ovary). The format is cell-based, human. Conditions: R0-grown cultures; AM 0.1 μM to 100 μM, 0.1 nM to 100 nM. An excerpt: Results Obtained by Immunohistochemical (IHc) and in situ RT-PCR examination of paraffin-embedded RO-adapted cell lines were consistent with previously reported data on normal lung and pathological lung specimens (Martinez, A., et al., Endocrinology 136:4099-4105 (1995)). […] To further investigate this suspected phenomenon, MTT assay techniques were used to examine the effects of AM on the growth of several diverse tumor cell lines (lung, colon, breast, brain, and ovary). […] Since the test cells were known to produce authentic AM peptide, we assumed that this inability to stimulate growth with extrinsic ligand could possibly mean that the cells has already achieved maximal proliferative effects using their own AM.
i. Growth Assays: MTT techniques were performed as previously described (Nakanishi, Y. F., et al., Exper. Cell Biol. 56:74-85 (1988)). In brief, a single cell suspension of 2×10^5 cells/ml (50 μl/well) is seeded into 96-well PVC plates and an appropriate concentration of MoAb-G6 and AM was added in a volume of 50 μl. The assay is performed in TIS medium (RMPI 1640 plus 10 μg/ml transferrin, 10 μg/ml insulin and 3×10^−8M sodium selenite). […] The Biorad Microplate Manager plate reader and software was used to determine the change in number of viable cells from dye reduction measured by absorbance at 570 nm. […]

In a further data set the test system is MCF-7. Nature of the data set: Soft agar clonal growth assay, MCF-7. Type of data set: cell-based, human. Particulars: exogenous AM.
For the next data set, the system named is E. coli. Briefly: Microdilutional timed kill assay, E. coli. Type of data set: cell-based, Escherichia coli. Here is the method: (§1) Inhibition of growth of E. coli was assessed in a microdilutional timed kill assay. (See FIG. 22) Bacteria and Candida albicans were grown overnight on trypticase soy agar (TSA) and Sobouraud dextrose agar (SDA) plates, respectively, were suspended into RPMI-1640 medium (Bio-Whittaker) and adjusted to a final concentration of 8×10^3 cfu/ml in […] in plastic microdilution trays. AM-related peptides, magainins, and albumin were added in equimolar concentrations ranging from 8 μM to 300 μM. Plates were incubated at 37° C. with gentle agitation over 24 hours. At 6 hr and 24 hr time points, 10 to […] aliquots from each well were quantitatively cultured by serial 100-fold dilutions onto TSA and SDA plates.
For orientation: Dilution methods test growth across graded concentrations, often in twofold steps.

The test system of a further data set is P. aeruginosa. Nature of the data set: Micro-/macrodilution timed kill assay, P. aeruginosa. Type of data set: cell-based, Pseudomonas aeruginosa. Particulars: 24 hours exposure compared with 6 hours incubation. Here is the method: as §1, with “AM-related peptides, magainins, and albumin were added in equimolar concentrations ranging from 8 μM to 300 μM.” left out
(§2) Data were compiled from six experiments. Macrodilution assays were performed in 12×75 mm borosilicate glass tubes. Organisms were grown and harvested, as described in Roilides, E., et al., J Infect Dis. 163:579 (1991), and adjusted to a final inoculum concentration of 8×10^3 cfu/ml in 400 μl. […] Tubes were incubated at 37° C. with gentle agitation over 24 hours. At 6 and 24 hour time points, 100 μl aliquots from each tube were quantitatively cultured by serial 100-fold dilutions onto TSA and SDA plates.

For data set [2], the system named is C. albicans. Nature of the data set: Micro-/macrodilutional assay, C. albicans. The format is cell-based, Candida albicans. The method, then: as §1, with “AM-related peptides, magainins, and albumin were added in equimolar concentrations ranging from 8 μM to 300 μM.” left out
as §2

In data set [3] the test system is C. albicans. Nature of the data set: Germination assay, C. albicans. The format is cell-based, Candida albicans. The method, then: Data were compiled from 11 experiments. Germination was determined by incubating colonies of C. albicans that were harvested from an overnight growth on SDA and suspended on RPMI-1640 containing concentrations of AM from 8 to 85 μM. Organisms were incubated at 37° C. and germination was measured at 2 h and 4 h by reading 100 to 200 organisms per concentration per time point in each experiment. Percent germination was assessed as the proportion of blastoconidia of C. albicans bearing the characteristic parallel-walled tubular element to the total number of blastoconidia.

A further data set deals with rat isolated islets. Nature of the data set: Insulin release from rat isolated islets (RIA). The format is cell-based. The method, then: Dose-dependent increase of intracellular cAMP in the islets following addition of AM. Islets from six rats were isolated following well-established protocols (Gray, et al., Diabetes 33, 1055 (1984)). Assays were performed in 24-well plates (90 islets per well). After a 45 min incubation in […] medium containing 5.6 mM glucose, a second incubation in RPMI containing 20.6 mM glucose and the proper concentration of AM and/or the antibody was performed. Supernatants from both incubations were tested by radioimmunoassay (RIA) for insulin (Amersham, Arlington Heights, Ill.). The ratio between the insulin concentration found in the high glucose supernatant and the insulin measured in the low glucose solution is represented in ordinates. After collecting the medium, the islets from the same experiments were saved for analysis of cAMP contents (Korman, et al., Cancer Res. 46, 1214 (1986)). Islets were extracted in 50% ethanol and centrifuged, and the supernatants were tested for cAMP using a RIA kit (New England Nuclear, Boston, Mass.) following manufacturer's instructions. The experiments were repeated three times and a representative example shown. Data are means±standard deviations of two wells.

Another data set in a line: Isoelectric point. The format is physicochemical.

Regarding `CC[C@H](C)[C@H](NC(=O)[C@H](CCC(N)=O)NC(=O)[C@H](Cc1c[nH]cn1)NC(=O)[C@H](C)NC(=O)[C@H](CC(C)C)NC(=O)[C@H](CCCCN)NC(=O)[C@H](CCC(N)=O)NC(=O)[C@@H](NC(=O)[C@@H](NC(=O)[C@@H]1CSSC[C@H](NC(=O)CNC(=O)[C@H](Cc2ccccc2)NC(=O)[C@H](CO)NC(=O)[C@H](CCCNC(=N)N)NC(=O)[C@H](CC(C)C)NC(=O)CNC(=O)[C@H](CCC(N)=O)NC(=O)[C@H](Cc2ccccc2)NC(=O)[C@H](CC(N)=O)NC(=O)[C@H](CC(N)=O)NC(=O)[C@H](CCSC)NC(=O)[C@H](CO)NC(=O)[C@H](CCC(N)=O)NC(=O)[C@H](CCCNC(=N)N)NC(=O)[C@@H](N)Cc2ccc(O)cc2)C(=O)N[C@@H](CCCNC(=N)N)C(=O)N[C@@H](Cc2ccccc2)C(=O)NCC(=O)N[C@@H]([C@@H](C)O)C(=O)N1)[C@@H](C)O)C(C)C)C(=O)N[C@@H](Cc1ccc(O)cc1)C(=O)N[C@@H](CCC(N)=O)C(=O)N[C@@H](Cc1ccccc1)C(=O)N[C@H](C(=O)N[C@@H](CC(=O)O)C(=O)N[C@@H](CCCCN)C(=O)N[C@@H](CC(=O)O)C(=O)N[C@@H](CCCCN)C(=O)N[C@@H](CC(=O)O)C(=O)N[C@@H](CC(N)=O)C(=O)N[C@H](C(=O)N[C@@H](C)C(=O)N1CCC[C@H]1C(=O)N[C@@H](CCCNC(=N)N)C(=O)N[C@@H](CO)C(=O)N[C@@H](CCCCN)C(=O)N[C@H](C(=O)N[C@@H](CO)C(=O)N1CCC[C@H]1C(=O)N[C@@H](CCC(N)=O)C(=O)NCC(=O)N[C@@H](Cc1ccc(O)cc1)C(N)=O)[C@@H](C)CC)C(C)C)[C@@H](C)O` [AM], the “stimulation of growth by exogenous AM” value in data set [1] is reported as “ineffective in stimulating growth”. In addition, the “clonal growth in soft agar” value with MCF-7 is recorded as “elevated clonal growth”. Moreover, the “activity against E. coli” value with E. coli (after 6 hours of incubation) is reported as “activity”. Moreover, the “growth inhibitory activity against E. coli, comparative” value with E. coli (microdilution, 6 hours, FIG. 22) is “higher growth inhibitory activity than albumin”. Moreover, in the data set with P. aeruginosa, the “antimicrobial activity against P. aeruginosa, 24 hours versus 6 hours” value is listed as “greater antimicrobial activity”. Moreover, the “antimicrobial effect against C. albicans” value in the data set with C. albicans [2] is listed as 73%±8.1. Besides, the “activity against C. albicans” value in the data set with C. albicans [2] (after 6 hours of incubation) is “activity”. The “suppression of germination of C. albicans, 2 hours” value in the data set on C. albicans [3] (2 hours incubation) was “non-significant trend in the suppression of germination; also recorded: not significant”. Moreover, the “inhibition of germination of C. albicans, 4 hours” value in the data set on C. albicans [3] (increasing concentrations of AM (8 to 85 μM), 4 hours incubation) is reported as “significant inhibition of germination”. In the data set on rat isolated islets (AM concentration of 1 μM, freshly isolated islets), the “inhibition of insulin secretion” value is 78%. For the same compound, in the data set on rat isolated islets (isolated islets), the “effect of AM on insulin secretion” value is on record as “inhibits insulin secretion in a dose-dependent manner; also recorded: dose-dependent reduction of insulin secretion; also recorded: reduces insulin secretion”. In addition, the isoelectric point in “Isoelectric point” was 9.7 and 10.2.
